# Results as given in the NIST ThermoML archive (doi:10.1016/j.jct.2006.08.009).
# Numbers after ± are expanded uncertainties.
# Assay: mn = molality of the nth substance listed, in mol/kg
# Conditions: 350 kPa, Liquid; for apparent molar heat capacity: Extra sensitive DSC
structure (smiles),measurement,setting,value
"OC[C@@H](O)[C@@H](O)[C@@H](O)CO [SRS-1,2,3,4,5-pentanepentol] + O",apparent molar heat capacity,"278.15 K, m1 = 0.0196",335 ± 49 J/K/mol
same,apparent molar heat capacity,"278.15 K, m1 = 0.0506",329.5 ± 20 J/K/mol
same,apparent molar heat capacity,"278.15 K, m1 = 0.1042",335.2 ± 10 J/K/mol
same,apparent molar heat capacity,"278.15 K, m1 = 0.2591",334.4 ± 5.6 J/K/mol
same,apparent molar heat capacity,"278.15 K, m1 = 0.5092",334.9 ± 4.3 J/K/mol
same,apparent molar heat capacity,"278.15 K, m1 = 0.9969",336.5 ± 3.9 J/K/mol
same,apparent molar heat capacity,"278.15 K, m1 = 1.998",336.2 ± 3.8 J/K/mol
same,apparent molar heat capacity,"278.15 K, m1 = 3.177",339.7 ± 3.7 J/K/mol
same,mass density,"278.15 K, m1 = 0.0196",1001.15 ± 0.17 kg/m3
same,mass density,"278.15 K, m1 = 0.0506",1002.66 ± 0.18 kg/m3
same,mass density,"278.15 K, m1 = 0.1042",1005.31 ± 0.18 kg/m3
same,mass density,"278.15 K, m1 = 0.2591",1012.83 ± 0.2 kg/m3
same,mass density,"278.15 K, m1 = 0.5092",1024.77 ± 0.22 kg/m3
same,mass density,"278.15 K, m1 = 0.9969",1046.03 ± 0.26 kg/m3
same,mass density,"278.15 K, m1 = 1.998",1084.53 ± 0.34 kg/m3
same,mass density,"278.15 K, m1 = 3.177",1119.46 ± 0.42 kg/m3
same,apparent molar heat capacity,"283.15 K, m1 = 0.0196",354 ± 50 J/K/mol
same,apparent molar heat capacity,"283.15 K, m1 = 0.0506",343 ± 20 J/K/mol
same,apparent molar heat capacity,"283.15 K, m1 = 0.1042",350.4 ± 10 J/K/mol
same,apparent molar heat capacity,"283.15 K, m1 = 0.2591",349.6 ± 5.5 J/K/mol
same,apparent molar heat capacity,"283.15 K, m1 = 0.5092",349.7 ± 4.2 J/K/mol
same,apparent molar heat capacity,"283.15 K, m1 = 0.9969",350.6 ± 3.7 J/K/mol
same,apparent molar heat capacity,"283.15 K, m1 = 1.998",349.4 ± 3.6 J/K/mol
same,apparent molar heat capacity,"283.15 K, m1 = 3.177",351.5 ± 3.5 J/K/mol
same,mass density,"283.15 K, m1 = 0.0196",1000.8 ± 0.17 kg/m3
same,mass density,"283.15 K, m1 = 0.0506",1002.31 ± 0.17 kg/m3
same,mass density,"283.15 K, m1 = 0.1042",1004.94 ± 0.18 kg/m3
same,mass density,"283.15 K, m1 = 0.2591",1012.39 ± 0.19 kg/m3
same,mass density,"283.15 K, m1 = 0.5092",1024.17 ± 0.22 kg/m3
same,mass density,"283.15 K, m1 = 0.9969",1045.12 ± 0.26 kg/m3
same,mass density,"283.15 K, m1 = 1.998",1083.19 ± 0.34 kg/m3
same,mass density,"283.15 K, m1 = 3.177",1117.64 ± 0.41 kg/m3
same,apparent molar heat capacity,"288.15 K, m1 = 0.0196",368 ± 49 J/K/mol
same,apparent molar heat capacity,"288.15 K, m1 = 0.0506",354.3 ± 20 J/K/mol
same,apparent molar heat capacity,"288.15 K, m1 = 0.1042",362 ± 10 J/K/mol
same,apparent molar heat capacity,"288.15 K, m1 = 0.2591",361.4 ± 5.3 J/K/mol
same,apparent molar heat capacity,"288.15 K, m1 = 0.5092",361.4 ± 4 J/K/mol
same,apparent molar heat capacity,"288.15 K, m1 = 0.9969",361.7 ± 3.5 J/K/mol
same,apparent molar heat capacity,"288.15 K, m1 = 1.998",359.9 ± 3.4 J/K/mol
same,apparent molar heat capacity,"288.15 K, m1 = 3.177",361.1 ± 3.2 J/K/mol
same,mass density,"288.15 K, m1 = 0.0196",1000.18 ± 0.17 kg/m3
same,mass density,"288.15 K, m1 = 0.0506",1001.7 ± 0.17 kg/m3
same,mass density,"288.15 K, m1 = 0.1042",1004.3 ± 0.18 kg/m3
same,mass density,"288.15 K, m1 = 0.2591",1011.68 ± 0.19 kg/m3
same,mass density,"288.15 K, m1 = 0.5092",1023.3 ± 0.22 kg/m3
same,mass density,"288.15 K, m1 = 0.9969",1044.05 ± 0.26 kg/m3
same,mass density,"288.15 K, m1 = 1.998",1081.81 ± 0.34 kg/m3
same,mass density,"288.15 K, m1 = 3.177",1115.96 ± 0.41 kg/m3
same,apparent molar heat capacity,"293.15 K, m1 = 0.0196",377 ± 46 J/K/mol
same,apparent molar heat capacity,"293.15 K, m1 = 0.0506",365.3 ± 19 J/K/mol
same,apparent molar heat capacity,"293.15 K, m1 = 0.1042",371.7 ± 10 J/K/mol
same,apparent molar heat capacity,"293.15 K, m1 = 0.2591",371.2 ± 5.2 J/K/mol
same,apparent molar heat capacity,"293.15 K, m1 = 0.5092",371 ± 3.9 J/K/mol
same,apparent molar heat capacity,"293.15 K, m1 = 0.9969",371 ± 3.4 J/K/mol
same,apparent molar heat capacity,"293.15 K, m1 = 1.998",368.5 ± 3.2 J/K/mol
same,apparent molar heat capacity,"293.15 K, m1 = 3.177",369.4 ± 3 J/K/mol
same,apparent molar heat capacity,"298.15 K, m1 = 0.0196",385 ± 45 J/K/mol
same,apparent molar heat capacity,"298.15 K, m1 = 0.0506",375.1 ± 18 J/K/mol
same,apparent molar heat capacity,"298.15 K, m1 = 0.1042",380.2 ± 9.7 J/K/mol
same,apparent molar heat capacity,"298.15 K, m1 = 0.2591",379.6 ± 4.9 J/K/mol
same,apparent molar heat capacity,"298.15 K, m1 = 0.5092",379.3 ± 3.7 J/K/mol
same,apparent molar heat capacity,"298.15 K, m1 = 0.9969",379 ± 3.2 J/K/mol
same,apparent molar heat capacity,"298.15 K, m1 = 1.998",376.1 ± 3 J/K/mol
same,apparent molar heat capacity,"298.15 K, m1 = 3.177",376.6 ± 3 J/K/mol
same,mass density,"298.15 K, m1 = 0.0196",998.09 ± 0.18 kg/m3
same,mass density,"298.15 K, m1 = 0.0506",999.6 ± 0.17 kg/m3
same,mass density,"298.15 K, m1 = 0.1042",1002.18 ± 0.17 kg/m3
same,mass density,"298.15 K, m1 = 0.2591",1009.48 ± 0.19 kg/m3
same,mass density,"298.15 K, m1 = 0.5092",1020.79 ± 0.21 kg/m3
same,mass density,"298.15 K, m1 = 0.9969",1041.23 ± 0.25 kg/m3
same,mass density,"298.15 K, m1 = 1.998",1078.43 ± 0.33 kg/m3
same,mass density,"298.15 K, m1 = 3.177",1112.13 ± 0.4 kg/m3
same,apparent molar heat capacity,"303.15 K, m1 = 0.0196",392 ± 44 J/K/mol
same,apparent molar heat capacity,"303.15 K, m1 = 0.0506",383.2 ± 18 J/K/mol
same,apparent molar heat capacity,"303.15 K, m1 = 0.1042",387.5 ± 9.5 J/K/mol
same,apparent molar heat capacity,"303.15 K, m1 = 0.2591",386.8 ± 4.8 J/K/mol
same,apparent molar heat capacity,"303.15 K, m1 = 0.5092",386.4 ± 3.6 J/K/mol
same,apparent molar heat capacity,"303.15 K, m1 = 0.9969",385.9 ± 3 J/K/mol
same,apparent molar heat capacity,"303.15 K, m1 = 1.998",382.8 ± 2.9 J/K/mol
same,apparent molar heat capacity,"303.15 K, m1 = 3.177",383 ± 2.8 J/K/mol
same,apparent molar heat capacity,"308.15 K, m1 = 0.0196",397 ± 44 J/K/mol
same,apparent molar heat capacity,"308.15 K, m1 = 0.0506",389.5 ± 18 J/K/mol
same,apparent molar heat capacity,"308.15 K, m1 = 0.1042",393.6 ± 9.2 J/K/mol
same,apparent molar heat capacity,"308.15 K, m1 = 0.2591",393 ± 4.8 J/K/mol
same,apparent molar heat capacity,"308.15 K, m1 = 0.5092",392.6 ± 3.4 J/K/mol
same,apparent molar heat capacity,"308.15 K, m1 = 0.9969",392 ± 3 J/K/mol
same,apparent molar heat capacity,"308.15 K, m1 = 1.998",388.8 ± 2.9 J/K/mol
same,apparent molar heat capacity,"308.15 K, m1 = 3.177",388.8 ± 2.8 J/K/mol
same,mass density,"308.15 K, m1 = 0.0196",995.08 ± 0.18 kg/m3
same,mass density,"308.15 K, m1 = 0.0506",996.56 ± 0.18 kg/m3
same,mass density,"308.15 K, m1 = 0.1042",999.1 ± 0.17 kg/m3
same,mass density,"308.15 K, m1 = 0.2591",1006.35 ± 0.18 kg/m3
same,mass density,"308.15 K, m1 = 0.5092",1017.44 ± 0.2 kg/m3
same,mass density,"308.15 K, m1 = 0.9969",1037.61 ± 0.25 kg/m3
same,mass density,"308.15 K, m1 = 1.998",1074.35 ± 0.32 kg/m3
same,mass density,"308.15 K, m1 = 3.177",1107.66 ± 0.39 kg/m3
same,apparent molar heat capacity,"313.15 K, m1 = 0.0196",403 ± 43 J/K/mol
same,apparent molar heat capacity,"313.15 K, m1 = 0.0506",395.7 ± 17 J/K/mol
same,apparent molar heat capacity,"313.15 K, m1 = 0.1042",399.2 ± 9.1 J/K/mol
same,apparent molar heat capacity,"313.15 K, m1 = 0.2591",398.6 ± 4.7 J/K/mol
same,apparent molar heat capacity,"313.15 K, m1 = 0.5092",398.2 ± 3.4 J/K/mol
same,apparent molar heat capacity,"313.15 K, m1 = 0.9969",397.4 ± 2.9 J/K/mol
same,apparent molar heat capacity,"313.15 K, m1 = 1.998",394.1 ± 2.7 J/K/mol
same,apparent molar heat capacity,"313.15 K, m1 = 3.177",393.9 ± 2.6 J/K/mol
same,apparent molar heat capacity,"318.15 K, m1 = 0.0196",408 ± 42 J/K/mol
same,apparent molar heat capacity,"318.15 K, m1 = 0.0506",401.1 ± 17 J/K/mol
same,apparent molar heat capacity,"318.15 K, m1 = 0.1042",404.3 ± 8.9 J/K/mol
same,apparent molar heat capacity,"318.15 K, m1 = 0.2591",403.7 ± 4.6 J/K/mol
same,apparent molar heat capacity,"318.15 K, m1 = 0.5092",403.2 ± 3.3 J/K/mol
same,apparent molar heat capacity,"318.15 K, m1 = 0.9969",402.3 ± 2.9 J/K/mol
same,apparent molar heat capacity,"318.15 K, m1 = 1.998",398.9 ± 2.7 J/K/mol
same,apparent molar heat capacity,"318.15 K, m1 = 3.177",398.6 ± 2.6 J/K/mol
same,mass density,"318.15 K, m1 = 0.0196",991.29 ± 0.19 kg/m3
same,mass density,"318.15 K, m1 = 0.0506",992.73 ± 0.19 kg/m3
same,mass density,"318.15 K, m1 = 0.1042",995.28 ± 0.18 kg/m3
same,mass density,"318.15 K, m1 = 0.2591",1002.45 ± 0.18 kg/m3
